Laboratory results from patent publication US20240391871A1, “SUBSTITUTED HYDROXYMETHYL PYRROLIDINES AND MEDICAL USES THEREOF” (ATROGI AB, priority 2021, published 2024).

Columns and labels:
Assay type in all cases: cell-based
[1] = tested on: Intracellular cAMP levels; assay: Measurement of intracellular cAMP levels in differentiated L6 cells; settings: compound 1×10^−5 M, 15 min
Experimental: (§1) L6-myoblasts were grown in Dulbecco's Modified Eagle's Medium (DMEM) containing 1 g/L glucose supplemented with 10% fetal bovine serum, 2 mM L-Glutamine, 50 U/mL penicillin, 50 μg/mL streptomycin and 10 mM HEPES. Cells were plated at 1×10^5 cells per mL in 24-well plates. After reaching 90% confluence the cells were grown in medium containing 2% FBS for 7 days where upon cells differentiated into myotubes.
Differentiated cells were serum-starved overnight and stimulated with an agonist, final concentration 1×10^−5 M, for 15 min in stimulation buffer (HBSS supplemented with 1% BSA, 5 mM HEPES and 1 mM IBMX, pH 7.4). The medium was aspirated and 100 μL of 95% EtOH was added to each well of the 24-well plate and cells were kept at −20° C. overnight. The EtOH was allowed to evaporate and 500 μL of lysis buffer (1% BSA, 5 mM HEPES and 0.3% Tween-20, pH 7.4) was added to each well. The plate was kept at −80° C. for 30 min and then at −20° C. until the day of detection when the samples were thawed. Intracellular cAMP levels were detected using an alpha screen cAMP kit (6760635D from Perkin Elmer). The activity for each compound is compared to that of isoproterenol.

L6-myotubes [2] = assay: Glucose uptake (3H-2-deoxyglucose) in differentiated L6-myotubes; settings: compound 1×10^−5 M
Experimental: as §1
Differentiated L6-myotubes were serum-starved overnight in medium containing 0.5% fatty-acid free BSA and stimulated with an agonist, with a final concentration of 1×10^−5 M. After 1 h 40 min the cells were washed with warm glucose free medium or PBS twice and another portion of agonist was added to the glucose free medium. After 20 min the cells were exposed to 50 nM ^3H-2-deoxyglucose for 10 min before washed with ice cold glucose free medium or PBS three times and lysed with 0.2 M NaOH, 400 μL/well, for 1 h at 60° C. The cell lysate was mixed with 4 mL scintillation buffer (Emulsifier Safe, Perkin Elmer) and the radioactivity was detected in a β-counter (Tri-Carb 4810TR, Perkin Elmer). The activity for each compound is compared to that of isoproterenol.

L6-myotubes [3] = assay: Glucose uptake in L6-myotubes in the presence of the β2-antagonist ICI-118,551; settings: compound 1×10^−5 M, ICI-118,551 1×10^−5 M
Experimental: as §1
Differentiated L6-myotubes were serum-starved overnight in medium containing 0.5% fatty-acid free BSA and were incubated with the β2-adrenergic receptor antagonist ICI-118,551 at a final concentration of 1×10^−5 M for 30 min. The cells were stimulated with a compound of the invention, at a final concentration of 1×10^−5 M. After 1 h 40 min the cells were washed twice with warm, glucose free medium or PBS and additional portions of the compound of the invention and the antagonist were added. After 20 min the cells were exposed to 50 nM ^3H-2-deoxyglucose for 10 min before washed with ice cold glucose free medium or PBS three times and lysed with 0.2 M NaOH, 400 μL/well, for 1 h at 60° C. The cell lysate was mixed with 4 mL scintillation buffer (Emulsifier Safe, Perkin Elmer) and the radioactivity was detected in a β-counter (Tri-Carb 4810TR, Perkin Elmer). The activity for each compound is compared to that of isoproterenol.

| Compound | Biological example 2: intracellular cAMP levels, activity compared to that of isoproterenol [1] | Biological example 1: glucose uptake, activity compared to that of isoproterenol (L6-myotubes [2]) | Biological example 3: glucose uptake in the presence of the β2-antagonist ICI-118,551, activity compared to that of isoproterenol (L6-myotubes [3]) | Emax at 10 µM ([1]; Rattus norvegicus, L6, 0.25 h, read-out: Biological example 2: intracellular cAMP levels, activity compared to that of isoproterenol) [%] | Emax at 10 µM (L6-myotubes [2]; read-out: Biological example 1: glucose uptake, activity compared to that of isoproterenol) [%] |
| --- | --- | --- | --- | --- | --- |
| CO[C@H]1CC[C@H](C[C@@H]2CC[C@H]([C@H](O)c3cccc(F)c3)N2)CC1.Cl [Example 1, (R)-(3-Fluorophenyl)((2R,5S)-5-(((1r,4S)-4-methoxycyclohexyl)methyl) -pyrrolidin-2-yl)methanol hydrochloride] | − (less than 25%) | +++ (more than 75% of that of isoproterenol) | − (less than 25%) |  |  |
| CO[C@H]1CC[C@H](C[C@@H]2CC[C@H]([C@@H](O)c3cccc(F)c3)N2)CC1.Cl [Example 2, (S)-(3-Fluorophenyl)((2R,5S)-5-(((1r,4S)-4-methoxycyclohexyl) -methyl)pyrrolidin-2-yl)methanol hydrochloride] | − (less than 25%) | +++ (more than 75% of that of isoproterenol) | − (less than 25%) |  |  |
| CO[C@H]1CC[C@H](C[C@H]2CC[C@H]([C@H](O)c3cccc(F)c3)N2)CC1.Cl [Example 3, (R)-(3-Fluorophenyl)((2R,5R)-5-(((1r,4R)-4-methoxycyclohexyl)-methyl) -pyrrolidin-2-yl)methanol hydrochloride] | − (less than 25%) | +++ (more than 75% of that of isoproterenol) | − (less than 25%) |  |  |
| CO[C@H]1CC[C@H](C[C@@H]2CC[C@H]([C@H](O)c3ccccc3F)N2)CC1.Cl [Example 5] |  |  | − (less than 25%) |  |  |
| CO[C@H]1CC[C@H](C[C@H]2CC[C@H]([C@H](O)c3ccccc3F)N2)CC1.Cl [Example 7, (R)-(2-Fluorophenyl)((2R,5R)-5-(((1r,4S)-4-methoxycyclohexyl)methyl) -pyrrolidin-2-yl)methanol hydrochloride] |  |  | − (less than 25%) | 25 to 50 | > 75 |
